Counter-ions that a name gives are not always drawn.
Tests used:
[1] = system: prototrophic yeast strain (CEN.PK113-7D); assay: Propidium iodide fluorescence-based CLS method in yeast (incl. high-throughput screening); assay type: cell-based, Saccharomyces cerevisiae; conditions: concentration tested 100 μM; for Yeast CLS increase: Yes/No call of the screen; for PI intensity: solvent DMSO or water, chronological age point Day 7 (72 h growth = Day 1), lower = more survival;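 on PI intensity: untreated reference is eight DMSO and water control wells per plate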
Summary of the method: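 CEN.PK113-7D aged in SD medium at 30 °C with compounds (rapamycin 0–10 nM; sugars 0–8 mM; screen at single concentrations). At each age point cells were stained with 5 μg/mL PI for 15 min; fluorescence was normalized to OD600, background-subtracted, and survival scaled against boiled-cell control.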

[2] = system: prototrophic yeast strain (CEN.PK113-7D); assay: Yeast outgrowth in YPD liquid medium (CLS of aged cells); assay type: cell-based, Saccharomyces cerevisiae; conditions: concentration tested 100 μM; OD600 nm after 24 h in YPD at 30° C.; age point day 14
Summary of the method: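 Cultures aged at 30 °C in SD medium with double-diluted rapamycin (0–10 nM) or sugars/polyols (0–8 mM). On day 14, 3 µL of culture was transferred into 200 µL YPD and outgrowth read as OD600. Survival expressed relative to day 1 outgrowth (100%).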

Row | Structure (SMILES) | Yeast CLS increase [1] | PI intensity [1] | Outgrowth [2]
1 | CCC[C@@H]1C[C@@H](C(=O)N[C@@H]([C@H]2O[C@H](SC)[C@H](O)[C@@H](O)[C@H]2O)[C@@H](C)O)N(C)C1 [Lincomycin (hydrochloride monohydrate), reference compound] | No | 67,751.3 | 0.1
2 | COC(=O)CC(C)=O [Methyl acetylacetate] | No | 64,956.3 | 0.1
3 | C[C@](N)(Cc1ccc(O)cc1)C(=O)O [Metyrosine, reference compound] | No | 76,947.2 | 0.1
4 | CN(C)c1ccc(O)c2c1C[C@H]1C[C@H]3[C@H](N(C)C)C(O)=C(C(N)=O)C(=O)[C@@]3(O)C(O)=C1C2=O [Minocycline (hydrochloride), reference compound] |  | 71,078.2 | 0.1
5 | C/C(=C\C(=O)OCCCCCCCCC(=O)O)C[C@@H]1OC[C@H](C[C@@H]2O[C@H]2[C@@H](C)[C@H](C)O)[C@@H](O)[C@H]1O [Mupirocin, reference compound] | No | 68,477.7 | 0.1
6 | CN(C)c1nc2c(ncn2[C@@H]2O[C@H](CO)[C@@H](O)[C@H]2O)c(=O)[nH]1 [N2,N2-Dimethylguanosine] | No | 65,619.9 | 0.1
7 | CC(=O)N[C@@H](Cc1ccc(O)cc1)C(=O)O [N-Acetyl-L-tyrosine] | No | 57,322.5 | 0.1
8 | O=C1N[C@@H]2C(=C[C@H](O)[C@@H](O)[C@H]2O)c2cc3c(c(O)c21)OCO3 [Narciclasine] | No | 67,161.8 | 0.1
9 | CC(C)(O)CCc1c(O)cc(O)c2c(=O)c(O)c(-c3ccc(O)cc3)oc12 [Noricaritin] | No | 77,179.8 | 0.1
10 | Cn1cc(C(N)=O)ccc1=O [Nudifloramide] | No | 65,023.3 | 0.1
11 | CCCCCCCCCCCCCCC(=O)O [Pentadecanoic acid] | No | 75,173.9 | 0.1
12 | CC(O)Cn1cnc2c1c(=O)n(C)c(=O)n2C (centres unmarked) [Proxyphylline, reference compound] | No | 72,232.1 | 0.1
13 | c1ncc2[nH]cnc2n1 [Purine] | No | 53,185.1 | 0.1
14 | Cl.Cl.[O-][S+]1c2ccccc2N=C(N2CCN(CCOCCO)CC2)c2ccccc21 (centres unmarked) [Quetiapine sulfoxide (dihydrochloride)] | No | 68,761.6 | 0.1
15 | C=C[C@H]1C[N@@]2CC[C@H]1C[C@H]2[C@H](O)c1ccnc2ccc(OC)cc12 [Quinine (hydrochloride dihydrate), reference compound] | No |  | 0.1
16 | CO[C@H]1C[C@@H]2CC[C@@H](C)[C@@](O)(O2)C(=O)C(=O)N2CCCC[C@H]2C(=O)O[C@H]([C@H](C)C[C@@H]2CC[C@@H](O)[C@H](OC)C2)CC(=O)[C@H](C)/C=C(\C)[C@@H](O)[C@@H](OC)C(=O)[C@H](C)C[C@H](C)/C=C/C=C/C=C/1C [Rapamycin, reference compound] |  | 21,460.5 | 1.3
17 | CC1=C(/C=C/C(C)=C/C=C/C(C)=C/C(=O)O)C(C)(C)CCC1 [Retinoic acid, reference compound] |  | 85,242.6 | 0.1
18 | CC[C@H]1CN2CC[C@]3(C(=O)Nc4ccccc43)[C@@H]2C[C@@H]1/C(=C\OC)C(=O)OC [Rhynchophylline] | No | 55,562.5 | 0.1

Row | Structure (SMILES) | Yeast CLS increase [1] | PI intensity [1] | Outgrowth [2]
19 | CO[C@H]1/C=C/O[C@@]2(C)Oc3c(C)c([O-])c4c(O)c(cc(O)c4c3C2=O)NC(=O)/C(C)=C\C=C\[C@H](C)[C@H](O)[C@@H](C)[C@@H](O)[C@@H](C)[C@H](OC(C)=O)[C@@H]1C.[Na+] [Rifamycin (sodium), reference compound] | Yes | 39,446.0 | 0.6
20 | C[C@H]1CNCCCN1S(=O)(=O)c1cccc2cncc(F)c12 [Ripasudil, reference compound] | No | 77,962.0 | 0.1
21 | O=C(O)/C=C/CCCCCCCO [Royal Jelly acid] | No | 65,406.1 | 0.1
22 | CC[C@@]1(O)C(=O)OCc2c1cc1n(c2=O)Cc2cc3c([N+](=O)[O-])cccc3nc2-1 [Rubitecan] | No | 57,075.3 | 0.1
23 | COc1cc2c(c(OC)c1OC)-c1c(cc3c(c1OC)OCO3)C[C@H](C)[C@@](C)(O)C2 [Schisandrol B] | No | 80,051.7 | 0.1
24 | C[Se]CC[C@H](N)C(=O)O [Selenomethionine] | Yes | 29,837.8 | 1.2
25 | CN[C@@H]1C[C@H]2O[C@@](C)([C@@H]1OC)n1c3ccccc3c3c4c(c5c6ccccc6n2c5c31)C(=O)NC4 [Staurosporine] | No | 67,250.9 | 0.1
26 | C[C@H](Cn1cnc2c(N)ncnc21)OCP(=O)(O)O.O [Tenofovir (hydrate), reference compound] | No | 76,065.0 | 0.1
27 | CC(C)N1CCN(c2ccc(OCC3COC(Cn4cncn4)(c4ccc(Cl)cc4Cl)O3)cc2)CC1 (centres unmarked) [Terconazole, reference compound] | No | 72,350.0 | 0.1
28 | Cc1nc(C)c(C)nc1C [Tetramethylpyrazine] | No | 62,003.6 | 0.1
29 | Cc1ccc(C(C)C)c(O)c1 [Thymol] | No | 61,503.8 | 0.1
30 | O=C(O)CCCCCCCCCCCC(=O)O [Tridecanedioic acid] | No | 80,407.7 | 0.1
31 | O=c1ccn([C@@H]2O[C@H](CO)[C@@H](O)[C@H]2O)c(=O)[nH]1 [Uridine] | No | 84,894.9 | 0.1
32 | O[C@H]([C@H](O)[C@@H]1CO1)[C@H]1CO1 [VAL-083] | No | 63,325.5 | 0.1
33 | COc1cc(C(=O)O)ccc1O [Vanillic acid] | No | 64,546.4 | 0.1
34 | COc1cc(O)c(C(C)=O)c(OC)c1 [Xanthoxylin] | No | 70,352.1 | 0.1
35 | CCCCC[C@H](O)CC(=O)CCc1ccc(O)c(OC)c1 [[6]-Gingerol] | No | 61,395.3 | 0.1
36 | N#CCCN [β-Aminopropionitrile] | No | 65,865.6 | 0.1
